Laboratory results published in patent US12070502B2, “Process for reducing subvisible particles in a pharmaceutical formulation” (Regeneron Pharmaceuticals, Inc., priority 2014, dated 2024).

What was measured:
[1] = Stability of polysorbate 20 / polysorbate 80 esters in 150 mg/mL antibody (mAb1) formulation by mass spectroscopy; settings: for Percent Ester Degradation: 150 mg/mL antibody (mAb1) formulation; for percent remaining esters, Diester / percent remaining esters, Monoester: 150 mg/mL mAb1, 0.02% detergent, no HIC (process 3)
Description: The stability of polysorbate 20 and polysorbate 80 in the 150 mg/mL antibody (mAb1) formulation containing 0.02% non-ionic detergent (polysorbate) prepared without HIC [process 3, see below and Table 8]) were compared, under the hypothesis that degradation of the fatty acid ester promotes protein instability and consequent SVP formation. The relative amounts of remaining esters (mono- and di-esters) were determined by mass spectroscopy.
The rates of degradation of polysorbate 20 and polysorbate 80 formulated with 150 mg/mL antibody (mAb1) (as described above for Table 5) were determined under identical conditions using mass spectroscopy to measure relative amounts of free fatty acids and fatty acid esters. Percent ester degradation was determined using the following formula:
[formula] wherein T0=time zero, T1=time at experimental condition (i.e., 2 months at 45° C.; 6 months at 5° C.), and POE=polyoxyethylene. […]
The time point samples were analyzed using an anion exchange column (Oasis MAX column, 30 μm, 2.1 mm×20 mm; Waters Corporation, Milford, Mass.) followed at t=5 minutes with reverse phase chromatography (ACQUITY UPLC® BEH 130 C4 column, 1.7 μm, 2.1 mm×50 mm; Waters Corporation, Milford, Mass.). The reverse phase output was connected to a mass spectrometer (Thermo Q-Exactive mass spectrometer; Thermo Fisher Scientific, Inc., Wilmington, Del.). The chromatographic conditions are described in Table 11.
The system was equilibrated with 99% mobile phase A (0.1% formic acid in water) at a flow rate of 0.1 mL/minute for 40 minutes prior to first injection. Water was used as a blank injection. The mass spectrometer parameters were as follows: mass range 150-2000 m/z; heater temperature at 250° C.; voltage 3.8 kv; sheath gas 40; auxiliary gas 10; capillary temperature 350° C.; and S-lens 50.

[2] = system: polysorbate degrading activity; test: Reduction of polysorbate 20 degradation by lipase inhibitors; type: biochemical, CHO cell; settings: relative to control without inhibitor
Text: Polysorbate degradation activity was followed during HIC purification of an exemplar antibody produced in CHO cell culture. Partially purified CHO cell extract was applied to HIC (phenyl-sepharose). The flow-through, which contained almost all of the antibody, was collected and analyzed for polysorbate degradation activity. […] The HIC bound fraction was stripped from the HIC media and subsequently subjected to 100 kDa cut-off ultrafiltration/diafiltration. The unfiltered stripped fraction contained 9.9% polysorbate degradation activity, the filter permeate contained 1.3% polysorbate degradation activity and 5% antibody yield, and the filter retentate contained 7.4% polysorbate degradation activity and 95% antibody yield.
Whether the polysorbate degrading activity is a lipase was tested by combining a lipase inhibitor with the polysorbate degrading activity fraction spiked with polysorbate 20. Table 12 presents the data showing a reduction of polysorbate degrading activity due to lipase inhibitor relative to the control (antibody with associated polysorbate degrading activity plus polysorbate 20 without lipase inhibitor).

With polysorbate 20 [PS20] as the molecule, how does the “Percent Ester Degradation” value ([1]; 2 months at 45° C.) read?
Its value is 63%.

What about the “percent remaining esters, Diester” value ([1]; 2 months at 45° C.) of the same molecule?
The value was 10%.

What about the “percent remaining esters, Monoester” value ([1]; 2 months at 45° C.) of the same molecule?
The value was 30%.

And the “Percent Ester Degradation” value ([1]; 6 months at 5° C.)?
The value was 22%.

And the “percent remaining esters, Diester” value ([1]; 6 months at 5° C.)?
Its value is 30%.

What about the “percent remaining esters, Monoester” value ([1]; 6 months at 5° C.) of the same molecule?
The value was 60%.

What about the “Percent Ester Degradation” value ([1]; Time zero) of the same molecule?
The value was 0%.

And the “percent remaining esters, Diester” value ([1]; Time zero)?
Its value is 100%.

What about the “percent remaining esters, Monoester” value ([1]; Time zero) of the same molecule?
The value was 100%.

Which results are given for CCCCCCCCCCC[C@@H](C[C@@H]1OC(=O)[C@H]1CCCCCC)OC(=O)[C@H](CC(C)C)NC=O [Orlistat, orlistat]?
Percent Reduction in Polysorbate 20 Degradation ([2]; 0.001 mM lipase inhibitor): 0%; Percent Reduction in Polysorbate 20 Degradation ([2]; 0.01 mM lipase inhibitor): 27.8%; Percent Reduction in Polysorbate 20 Degradation ([2]; 0.1 mM lipase inhibitor): 67%

Which “Percent Reduction in Polysorbate 20 Degradation” value (shortened to “Percent Reduction”) ([2]; 0.001 mM lipase inhibitor) does the source give for O=C(Nc1cccc(-c2ccccc2)c1)OC1CCCCC1 [URB602, [1-1′-biphenyl]-3-tl-carbamicacid cyclohexyl ester] here?
The value was 0%.

And the “Percent Reduction” value ([2]; 0.01 mM lipase inhibitor)?
The value was 20%.

What about the “Percent Reduction” value ([2]; 0.1 mM lipase inhibitor) of the same molecule?
The value was 0%.

Which “Percent Reduction” value ([2]; 0.001 mM lipase inhibitor) does the source give for diethylumbelliferyl phosphate here?
Its value is 48%.

And the “Percent Reduction” value ([2]; 0.01 mM lipase inhibitor)?
Its value is 100%.

And the “Percent Reduction” value ([2]; 0.1 mM lipase inhibitor)?
The value was over 95%.

With CCCCOc1ccccc1B(O)O [2-Butoxyphenyl boronic acid, 2-butoxyphenylboronic acid] as the molecule, how does the “Percent Reduction” value ([2]; 0.001 mM lipase inhibitor) read?
Its value is 0%.

And the “Percent Reduction” value ([2]; 0.01 mM lipase inhibitor)?
The value was 28%.

What about the “Percent Reduction” value ([2]; 0.1 mM lipase inhibitor) of the same molecule?
The value was 0%.
